These are literature values, as cited in patent US11279710B2, “Processes for preparing ACC inhibitors and solid forms thereof” (Gilead Sciences, Inc., priority 2017, dated 2022).

Each structure is given as a SMILES string. pIC50: −log10 of the molar value.

One series concerns ACC2. Conditions: ACC2 isolated from rat, mouse, monkey and human.
Series [1] deals with insulin-resistant rat muscle tissue. Conditions: within 30 min of compound administration.
The conditions of series [2]: rats, acute (46 min) treatment.
In a further series the target is T1, pyruvate carboxylase (Homo sapiens, UniProt P11498).
T1 sequence (P11498 21-1178): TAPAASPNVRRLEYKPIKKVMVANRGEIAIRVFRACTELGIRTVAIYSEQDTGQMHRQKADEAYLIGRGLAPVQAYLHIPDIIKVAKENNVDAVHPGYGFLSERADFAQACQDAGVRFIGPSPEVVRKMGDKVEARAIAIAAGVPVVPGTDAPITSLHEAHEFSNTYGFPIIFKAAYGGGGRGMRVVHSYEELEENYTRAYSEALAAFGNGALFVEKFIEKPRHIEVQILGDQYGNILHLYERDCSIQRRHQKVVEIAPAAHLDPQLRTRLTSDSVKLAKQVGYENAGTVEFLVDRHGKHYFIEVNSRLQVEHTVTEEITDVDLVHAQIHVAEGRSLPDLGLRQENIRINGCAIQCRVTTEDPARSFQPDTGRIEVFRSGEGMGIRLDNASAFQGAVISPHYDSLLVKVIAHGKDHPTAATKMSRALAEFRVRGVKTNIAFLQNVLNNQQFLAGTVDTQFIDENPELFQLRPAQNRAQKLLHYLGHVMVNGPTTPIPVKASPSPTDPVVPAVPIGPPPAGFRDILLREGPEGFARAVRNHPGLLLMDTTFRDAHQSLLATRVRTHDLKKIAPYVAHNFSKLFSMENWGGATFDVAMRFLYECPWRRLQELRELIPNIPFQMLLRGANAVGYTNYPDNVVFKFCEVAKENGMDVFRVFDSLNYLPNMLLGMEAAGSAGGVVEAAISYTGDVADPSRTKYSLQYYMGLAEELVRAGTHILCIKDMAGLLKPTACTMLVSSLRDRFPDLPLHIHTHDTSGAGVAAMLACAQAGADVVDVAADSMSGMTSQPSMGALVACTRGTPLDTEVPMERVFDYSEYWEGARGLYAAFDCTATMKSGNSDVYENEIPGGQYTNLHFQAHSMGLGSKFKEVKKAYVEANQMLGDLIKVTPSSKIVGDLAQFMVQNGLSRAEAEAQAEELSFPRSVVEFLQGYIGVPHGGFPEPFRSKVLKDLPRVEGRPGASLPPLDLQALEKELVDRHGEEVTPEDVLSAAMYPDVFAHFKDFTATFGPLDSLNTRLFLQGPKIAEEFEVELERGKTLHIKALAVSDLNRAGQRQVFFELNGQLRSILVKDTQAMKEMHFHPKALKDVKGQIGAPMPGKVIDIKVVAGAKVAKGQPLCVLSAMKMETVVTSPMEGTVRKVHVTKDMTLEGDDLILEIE

The conditions of series [3]: sucrose-fed rats, three weeks.
For series [4], the target named is T2, propionyl-CoA carboxylase (Homo sapiens, UniProt P05165+P05166).
T2 sequence (P05165 53-728): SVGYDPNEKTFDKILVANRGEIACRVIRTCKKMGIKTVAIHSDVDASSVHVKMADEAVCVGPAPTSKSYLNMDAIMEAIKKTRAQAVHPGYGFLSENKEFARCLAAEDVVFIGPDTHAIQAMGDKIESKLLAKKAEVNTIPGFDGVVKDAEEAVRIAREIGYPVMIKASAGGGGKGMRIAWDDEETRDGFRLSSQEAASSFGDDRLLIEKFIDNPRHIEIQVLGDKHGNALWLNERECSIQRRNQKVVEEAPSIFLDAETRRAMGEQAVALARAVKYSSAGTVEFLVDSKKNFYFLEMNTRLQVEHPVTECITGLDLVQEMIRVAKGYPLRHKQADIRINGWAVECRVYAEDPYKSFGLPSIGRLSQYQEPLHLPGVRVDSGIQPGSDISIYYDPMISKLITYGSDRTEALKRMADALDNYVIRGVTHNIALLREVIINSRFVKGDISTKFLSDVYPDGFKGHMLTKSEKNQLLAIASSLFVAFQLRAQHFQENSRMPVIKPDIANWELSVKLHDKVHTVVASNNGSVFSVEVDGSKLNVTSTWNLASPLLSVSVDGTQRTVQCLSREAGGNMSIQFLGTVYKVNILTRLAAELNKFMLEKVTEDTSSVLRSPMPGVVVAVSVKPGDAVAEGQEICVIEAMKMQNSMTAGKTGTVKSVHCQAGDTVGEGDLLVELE
T2 sequence (P05166 29-539): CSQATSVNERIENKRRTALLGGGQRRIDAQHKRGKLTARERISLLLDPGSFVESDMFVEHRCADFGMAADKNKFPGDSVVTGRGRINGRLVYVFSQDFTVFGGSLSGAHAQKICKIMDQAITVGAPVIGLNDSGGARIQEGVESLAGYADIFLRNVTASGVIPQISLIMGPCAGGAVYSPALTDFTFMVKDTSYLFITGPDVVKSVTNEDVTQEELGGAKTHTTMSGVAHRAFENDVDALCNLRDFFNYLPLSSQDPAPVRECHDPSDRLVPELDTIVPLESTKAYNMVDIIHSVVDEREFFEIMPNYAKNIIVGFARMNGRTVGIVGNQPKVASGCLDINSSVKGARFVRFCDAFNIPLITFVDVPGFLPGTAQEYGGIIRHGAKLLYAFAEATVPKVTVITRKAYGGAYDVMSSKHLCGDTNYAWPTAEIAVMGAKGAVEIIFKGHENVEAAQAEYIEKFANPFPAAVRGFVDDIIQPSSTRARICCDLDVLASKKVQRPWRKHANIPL

The next series deals with ACC1. Conditions: ACC1 isolated from rat, mouse, monkey and human.

For `O=C(c1c2ccccc2cc2ccccc12)N1CCC(N2CCC[C@@H](C(=O)N3CCOCC3)C2)CC1` [CP-640186], in the series on C2C12 cells, the FA oxidation result is given as “stimulated”. Also, where the note is “experimental animals”, the “liver and adipose tissue FA synthesis” value is “reduced”; the “whole body FA oxidation” value is on record as “increased”. The malonyl-CoA concentration result (lipogenic and oxidative tissues, fed and fasted state) is given as “acutely reduced”. In the series on ACC2, the negative logarithm of the IC50 (pIC50) (commonly the negative decadic logarithm of the IC50, by convention in mol/L) is about 7.22. For the same molecule, the insulin sensitivity entry in series [1] is “stimulation”. Moreover, in the series with Hep-G2 cells, the CPT-I activity entry is recorded as “increased”, the FA synthesis entry is “reduced”, the apoA1 secretion entry was “without affecting” and the apoB secretion entry was “reduced”. Further, in the series on Hep-G2 cells, the cholesterol synthesis entry is on record as “without affecting”; the “triglyceride synthesis and secretion” value is “reduced”. Also, the FA oxidation result with rat muscle slices was “stimulated”. Besides, in series [2], the FA clearance entry is recorded as “stimulated” and the glucose clearance entry is “without decreasing”. Besides, the “inhibition of pyruvate carboxylase” value at pyruvate carboxylase was “without inhibiting”. In [3], the “hyperinsulinemia produced by the high sucrose diet” value is on record as “reduced”, the insulin sensitivity entry is “improved”, the lean body mass entry was “without reducing” and the leptin levels result is “reduced”. In [3], the “liver, muscle and adipose triglycerides” value is “time- and dose-dependently reduced”; the plasma glucose levels result was “without changing”. In series [3] (due to selective fat reduction), the body weight result is reported as “reduced”. Further, in series [4], the “inhibition of propionyl-CoA carboxylase” value is given as “without inhibiting”. Also, the pIC50 in the series with ACC1 was about 7.22.
With `COc1ccccc1[C@H](Cn1c(=O)n(C(C)(C)C(=O)O)c(=O)c2c(C)c(-c3ncco3)sc21)OC1CCOCC1` [Compound I, (R)-2-(1-(2-(2-methoxyphenyl)-2-((tetrahydro-2H-pyran-4-yl)oxy)ethyl)-5-methyl-6-(oxazol-2-yl)-2,4-dioxo-1,2-dihydrothieno[2,3-d]pyrimidin-3(4H)-yl)-2-methylpropanoic acid], in the series on ACC, the ACC inhibitory activity result is “exhibits ACC inhibitory activity”.
Take `CO[C@H]1CCCC[C@@H](c2ccccc2)OC(=O)[C@@H](C)[C@@]2(O)O[C@H]([C@@H](C)[C@H](O)[C@H]2OC)[C@@H](C)/C=C/[C@H]1OC` [soraphen A]: in the series on human liposarcoma, the lipogenesis entry is given as “inhibited” and the tumor cell growth result is listed as “inhibited”.
